In brackets after ≈: the same amount, converted by molar mass.
Key:
[1] = Dog pharmacokinetics after oral administration of compound of example No. 1; format: in vivo, Beagle dogs; conditions: dog, blood
Protocol: A single dose of the compound of example 1 (3.0 mg/kg) was administered p.o. to 3 male Beagle dogs. Compound 1 was dosed as an aqueous suspension of the crystalline monohydrate form in Methylcellulose (0.5%): Tween 80 (1%) (90:10). Blood was taken in regular intervals by venipuncture, and the samples were analyzed for a period of up to 24 hours. The compounds of the examples 1, 2, and 3 were quantitatively assessed over time, and the results are tabulated below:
Key pharmacokinetic parameters (mean values±standard deviations (n=3) for 1, 2 and 3 after oral dosing of example No. 1.

[2] = Solubility in simulated gastric and intestinal fluids; format: physicochemical; conditions: Free Form
Description: Solubility of compound Example No. 1 in simulated gastric and in simulated intestinal fluids at room temperature
Solubility of compound Example No. 3 (free form/acetate salt form) in simulated gastric fluids: […]

PKC-theta = target: T1, PKC-theta (Homo sapiens, UniProt Q04759); test: Protein kinase C theta assay (Caliper mobility shift); format: biochemical; conditions: full length human recombinant enzyme, 70 μM ATP; read-out: PKCθ (IC50 in nM)
T1 construct: Both enzymes were full length human recombinant protein expressed in insect cells; purchased Invitrogen AG, Basel, Switzerland; host or cells: insect cells
T1 sequence (Q04759 whole entry): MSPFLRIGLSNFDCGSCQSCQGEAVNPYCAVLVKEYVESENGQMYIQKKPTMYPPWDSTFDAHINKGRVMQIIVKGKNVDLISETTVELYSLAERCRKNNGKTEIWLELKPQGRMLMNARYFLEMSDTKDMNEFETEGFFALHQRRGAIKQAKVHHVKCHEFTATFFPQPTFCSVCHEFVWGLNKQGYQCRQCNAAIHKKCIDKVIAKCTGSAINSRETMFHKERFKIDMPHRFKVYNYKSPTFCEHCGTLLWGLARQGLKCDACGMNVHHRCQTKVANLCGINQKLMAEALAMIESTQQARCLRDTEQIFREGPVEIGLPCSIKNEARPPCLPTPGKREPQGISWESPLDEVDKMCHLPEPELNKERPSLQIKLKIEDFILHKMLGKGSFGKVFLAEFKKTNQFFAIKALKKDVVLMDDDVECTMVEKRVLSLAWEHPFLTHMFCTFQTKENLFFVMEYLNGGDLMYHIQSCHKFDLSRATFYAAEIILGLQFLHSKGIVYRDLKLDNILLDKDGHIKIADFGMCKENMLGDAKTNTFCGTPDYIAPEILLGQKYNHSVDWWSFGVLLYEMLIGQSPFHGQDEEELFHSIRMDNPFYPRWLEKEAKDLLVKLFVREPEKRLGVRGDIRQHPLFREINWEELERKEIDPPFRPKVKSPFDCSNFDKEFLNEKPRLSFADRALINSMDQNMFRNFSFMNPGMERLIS
Protocol: (§1) The compounds of the invention were tested for their activity on different PKC isotypes according to the following method. All assays were performed in 384 well microtiter plates. Each assay plate contained 8-point serial dilutions for 40 test compounds, as well as two 16-point serial dilutions of staurosporine as reference compound, plus 16 high- and 16 low controls. Liquid handling and incubation steps were done on a automated workstation equipped with a Innovadyne Nanodrop Express.
(§2) The assay plates were prepared by addition of 50 nL per well of compound solution in 90% DMSO. The kinase reactions were started by stepwise addition of 4.5 μl per well of a 2× peptide/ATP-solution and 4.5 μl per well of a 2× enzyme solution. The final concentration of reagents during kinase reaction were: 50 mM HEPES, pH 7.5, 1 mM DTT, 0.02% Tween20, 0.02% BSA, 0.6% DMSO, 10 mM beta-glycerophosphate, and 10 μM sodium orthovanadate. The peptide substrate used in the PKC-alpha and PKC-theta assays was Dy495-X5-ME-Mpr-RFARKGSLRQKNV-COOH. […]
(§3) Plates with terminated kinase reactions were transferred to the Caliper LC3000 workstations for reading. Phosphorylated and unphosphorylated peptides were separated using the Caliper microfluidic mobility shift technology and Kinase activities were calculated from the amounts of formed phospho-peptide.

[3] = Dog pharmacokinetics after oral administration of compound of example No. 3 (mono acetate salt); format: in vivo, Beagle dogs; conditions: blood
Protocol: Compound of Example No. 3 was administered orally as the mono acetate salt in a hard gelatine capsule to 6 fasted male Beagle dogs. A nominal dose of 100 mg/dog was given, resulting in dose of 8.9-11.3 mg/kg (weight of the dogs ranging from 8.9-11.3 kg). Blood was taken by venipuncture, and sampling was performed up to 32 h. Bioanalytic determination was performed for 3 and is tabulated below:
Key pharmacokinetic parameters (mean values or range) for compound No. 3 after oral dosing as described above.

PKC-alpha = target: T2, PKC-alpha (Homo sapiens, UniProt P17252); test: Protein kinase C alpha assay (Caliper mobility shift); format: biochemical; conditions: full length human recombinant enzyme, 17 μM ATP; read-out: PKCα (IC50 in nM)
T2 construct: Both enzymes were full length human recombinant protein expressed in insect cells; purchased Invitrogen AG, Basel, Switzerland; host or cells: insect cells
Protocol: as §1, §2, §3

[4] = Stability in gastric and intestinal simulated fluids at 37° C.; format: physicochemical
Protocol: Stability Assessments Stability of Cpd. Example No. 1 in Gastric and Intestinal Simulated Fluids at 37° C.:
Stability of compound Example No. 3
(Free form/acetate salt form) in gastric and intestinal simulated fluids at 37° C.: […]

In the case of `Cc1cccc2c(C3=C(c4nc(N5CCNC6(CC6)C5)cc5ccccc45)C(=O)NC3=O)c[nH]c12` [Example 3, 3-[3-(4,7-diaza-spiro[2.5]oct-7-yl)-isoquinolin-1-yl]-4-(7-methyl-1H-indol-3-yl)-pyrrole-2,5-dione], the concentration at 0.083 h ([1]; po, male Beagle dogs, example 1 3.0 mg/kg p.o. (crystalline monohydrate suspension), 0.083 h) is reported as 15 nM, the concentration at 0.25 h ([1]; po, male Beagle dogs, example 1 3.0 mg/kg p.o., 0.25 h) is reported as 167 nM and the concentration at 0.5 h ([1]; po, male Beagle dogs, example 1 3.0 mg/kg p.o., 0.5 h) is reported as 757 nM. It also gave a concentration at 0.75 h ([1]; po, male Beagle dogs, example 1 3.0 mg/kg p.o., 0.75 h) of 1200 nM, a concentration at 1 h ([1]; po, male Beagle dogs, example 1 3.0 mg/kg p.o., 1 h) of 1310 nM and a concentration at 2 h ([1]; po, male Beagle dogs, example 1 3.0 mg/kg p.o., 2 h) of 1120 nM. It also gave a concentration at 3 h ([1]; po, male Beagle dogs, example 1 3.0 mg/kg p.o., 3 h) of 959 nM, a concentration at 4 h ([1]; po, male Beagle dogs, example 1 3.0 mg/kg p.o., 4 h) of 762 nM and a concentration at 7 h ([1]; po, male Beagle dogs, example 1 3.0 mg/kg p.o., 7 h) of 403 nM. For the same molecule, the concentration at 24 h ([1]; po, male Beagle dogs, example 1 3.0 mg/kg p.o., 24 h) was 67.9 nM, the Tmax ([1]; male, Beagle, 3 mg/kg, mean ± SD (n=3), after oral dosing of example No. 1 to dogs) was 54 ± 6 min and the solubility ([2]; FaSSIF pH 6.5) was 30 µg/mL (≈ 64.7 µM). The solubility ([2]; FeSSIF pH 5.8) was 280 µg/mL (≈ 604 µM), the solubility ([2]; simulated gastric fluid, SGF pH 2) was 120 µg/mL (≈ 259 µM) and the IC50 (PKC-theta) was 0.2 nM. For the same molecule, the concentration at 0.5 h ([3]; po, fasted male Beagle dogs, example No. 3 mono acetate salt p.o. 100 mg/dog, 0.5 h) was 936 nM, the concentration at 1 h ([3]; po, fasted male Beagle dogs, example No. 3 mono acetate salt p.o. 100 mg/dog, 1 h) was 2160 nM and the concentration at 2 h ([3]; po, fasted male Beagle dogs, example No. 3 mono acetate salt p.o. 100 mg/dog, 2 h) was 2550 nM. For the same molecule, the concentration at 3 h ([3]; po, fasted male Beagle dogs, example No. 3 mono acetate salt p.o. 100 mg/dog, 3 h) was 2000 nM, the concentration at 4 h ([3]; po, fasted male Beagle dogs, example No. 3 mono acetate salt p.o. 100 mg/dog, 4 h) was 1900 nM and the concentration at 6 h ([3]; po, fasted male Beagle dogs, example No. 3 mono acetate salt p.o. 100 mg/dog, 6 h) was 1490 nM. It also gave a concentration at 8 h ([3]; po, fasted male Beagle dogs, example No. 3 mono acetate salt p.o. 100 mg/dog, 8 h) of 1240 nM, a concentration at 24 h ([3]; po, fasted male Beagle dogs, example No. 3 mono acetate salt p.o. 100 mg/dog, 24 h) of 276 nM and a concentration at 32 h ([3]; po, fasted male Beagle dogs, example No. 3 mono acetate salt p.o. 100 mg/dog, 32 h) of 116 nM. It also gave a concentration at 0.25 h ([3]; po, fasted male Beagle dogs, example No. 3 mono acetate salt, capsule p.o. 100 mg/dog, 0.25 h) of 177 nM, a Tmax ([3]; male, Beagle, dog, 100 mg, range, after oral dosing of example No. 3 mono acetate salt to dogs) of 30 to 120 min and an IC50 (PKC-alpha) of 0.4 nM. The “Amount in Area % of compound example No. 3” value ([4]; Acetate Salt, FaSSIF pH 6.5, 37° C., 0 hours) was 100 Area %, the “Amount in Area % of compound example No. 3” value ([4]; Acetate Salt, FaSSIF pH 6.5, 37° C., 1 hours) was 98.6 Area % and the “Amount in Area % of compound example No. 3” value ([4]; Acetate Salt, FaSSIF pH 6.5, 37° C., 2.5 hours) was 98.7 Area %. For the same molecule, the “Amount in Area % of compound example No. 3” value ([4]; Acetate Salt, FaSSIF pH 6.5, 37° C., 4 hours) was 95.1 Area %, the “Amount in Area % of compound example No. 3” value ([4]; Acetate Salt, FaSSIF pH 6.5, 37° C., 7 hours) was 88.5 Area % and the “Amount in Area % of compound example No. 3” value ([4]; Acetate Salt, FeSSIF pH 5.8, 37° C., 0 hours) was 100 Area %. The “Amount in Area % of compound example No. 3” value ([4]; Acetate Salt, FeSSIF pH 5.8, 37° C., 1 hours) was 99.1 Area %, the “Amount in Area % of compound example No. 3” value ([4]; Acetate Salt, FeSSIF pH 5.8, 37° C., 2.5 hours) was 98.9 Area % and the “Amount in Area % of compound example No. 3” value ([4]; Acetate Salt, FeSSIF pH 5.8, 37° C., 4 hours) was 98 Area %. For the same molecule, the “Amount in Area % of compound example No. 3” value ([4]; Acetate Salt, FeSSIF pH 5.8, 37° C., 7 hours) was 97.5 Area %, the “Amount in Area % of compound example No. 3” value ([4]; Acetate Salt, SGF pH 2, 37° C., 0 hours) was 100 Area % and the “Amount in Area % of compound example No. 3” value ([4]; Acetate Salt, SGF pH 2, 37° C., 1 hours) was 96.4 Area %. The “Amount in Area % of compound example No. 3” value ([4]; Acetate Salt, SGF pH 2, 37° C., 2.5 hours) was 93.2 Area %, the “Amount in Area % of compound example No. 3” value ([4]; Acetate Salt, SGF pH 2, 37° C., 4 hours) was 92.4 Area % and the “Amount in Area % of compound example No. 3” value ([4]; Acetate Salt, SGF pH 2, 37° C., 7 hours) was 90.0 Area %. The “Amount in Area % of compound example No. 3” value ([4]; Free Form, FaSSIF pH 6.5, 37° C., 0 hours) was 100 Area %, the “Amount in Area % of compound example No. 3” value ([4]; Free Form, FaSSIF pH 6.5, 37° C., 1 hours) was 100 Area % and the “Amount in Area % of compound example No. 3” value ([4]; Free Form, FaSSIF pH 6.5, 37° C., 2.5 hours) was 100 Area %. For the same molecule, the “Amount in Area % of compound example No. 3” value ([4]; Free Form, FaSSIF pH 6.5, 37° C., 4 hours) was 90.7 Area %, the “Amount in Area % of compound example No. 3” value ([4]; Free Form, FaSSIF pH 6.5, 37° C., 7 hours) was 82.5 Area % and the “Amount in Area % of compound example No. 3” value ([4]; Free Form, FeSSIF pH 5.8, 37° C., 0 hours) was 100 Area %. The “Amount in Area % of compound example No. 3” value ([4]; Free Form, FeSSIF pH 5.8, 37° C., 1 hours) was 100 Area %, the “Amount in Area % of compound example No. 3” value ([4]; Free Form, FeSSIF pH 5.8, 37° C., 2.5 hours) was 100 Area % and the “Amount in Area % of compound example No. 3” value ([4]; Free Form, FeSSIF pH 5.8, 37° C., 4 hours) was 99.2 Area %. The “Amount in Area % of compound example No. 3” value ([4]; Free Form, FeSSIF pH 5.8, 37° C., 7 hours) was 98.7 Area %, the “Amount in Area % of compound example No. 3” value ([4]; Free Form, SGF pH 2, 37° C., 0 hours) was 98.8 Area % and the “Amount in Area % of compound example No. 3” value ([4]; Free Form, SGF pH 2, 37° C., 1 hours) was 98.6 Area %. For the same molecule, the “Amount in Area % of compound example No. 3” value ([4]; Free Form, SGF pH 2, 37° C., 2.5 hours) was 98.1 Area %, the “Amount in Area % of compound example No. 3” value ([4]; Free Form, SGF pH 2, 37° C., 4 hours) was 97.9 Area % and the “Amount in Area % of compound example No. 3” value ([4]; Free Form, SGF pH 2, 37° C., 7 hours) was 97.9 Area %.
